Our source for the inhibition, IC50 and Ki values is ChEMBL document CHEMBL3817848, “Synthesis and in vitro α-chymotrypsin inhibitory activity of 6-chlorobenzimidazole derivatives” (Bioorg Med Chem, 2016).

Each structure is given as a SMILES string.

One assay is filed under the species Homo sapiens. The assay can be described thus: Inhibition of alpha-chymotrypsin (unknown origin) using N-succinyl-L-phenylalanine-p-nitroanilide as substrate at 500 uM preincubated for 25 mins by microplate reader method.
The nature of assay [1]: Inhibition of alpha-chymotrypsin (unknown origin) using N-succinyl-L-phenylalanine-p-nitroanilide as substrate preincubated for 25 mins by microplate reader method. Further details: species or system Homo sapiens.
The nature of assay [2]: Competitive inhibition of alpha-chymotrypsin (unknown origin) using N-succinyl-L-phenylalanine-p-nitroanilide as substrate. On the set-up: species or system Homo sapiens.
Assay [3] in a line: Mixed inhibition of alpha-chymotrypsin (unknown origin) using n-succinyl-l-phenylalanine-p-nitroanilide as substrate. On the set-up: species or system Homo sapiens.

What is called inhibition is the share of the control response that was lost under treatment. Read a low inhibition as a response near the control. The IC50 is the concentration that gives 50% inhibition. Read a low IC50 as greater potency in that assay. As usually defined, the Ki is a measure of affinity in units of concentration, obtained from inhibition or displacement. `Clc1ccc2nc(-c3cccc4ccccc34)[nH]c2c1` had an inhibition in the assay listed under Homo sapiens of more than 50%. Moreover, in assay [1], the IC50 was found to be 20.9 µM. In assay [2], this molecule had an inhibition constant Ki of 25.3 µM.
On to `Oc1ccc(-c2nc3ccc(Cl)cc3[nH]2)c(O)c1`, for which the inhibition in the assay listed under Homo sapiens is more than 50%. For the same molecule, the IC50 in assay [1] is 34.6 µM. In assay [2], this molecule gave a Ki of 33.3 µM.
Take `Clc1ccc2nc(-c3cccc(Br)c3)[nH]c2c1`: in the assay filed under Homo sapiens, the inhibition is less than 50%. Further, 458 µM corresponded to half-maximal inhibition in assay [1] (IC50).
As to `Cn1c(-c2ccco2)nc2ccc(Cl)cc21`, in the assay filed under Homo sapiens, the inhibition is more than 50%. In assay [1], this molecule had an IC50 of 93.1 µM. The affinity in assay [2], expressed as Ki, was 71.4 µM.
`Clc1ccc(-c2nc3ccc(Cl)cc3[nH]2)c(Cl)c1` had an inhibition in the assay listed under Homo sapiens of more than 50%. The molecule further had a concentration for half-maximal inhibition (IC50) in assay [1] of 35.6 µM. In assay [2], the inhibitory constant (Ki) was 39.6 µM.
Take `CN(C)c1ccc(-c2nc3ccc(Cl)cc3[nH]2)cc1`: the inhibition in the assay listed under Homo sapiens was more than 50%. In assay [1], the IC50 was found to be 24.2 µM. This molecule came in with an inhibitory constant (Ki) in assay [2] of 17.5 µM.
For `Clc1ccc2[nH]c(-c3ccccc3)nc2c1`, the inhibition in the assay listed under Homo sapiens is less than 50%. This molecule also gave a 50% inhibitory concentration (IC50) in assay [1] of more than 500 µM.
`COc1cccc(-c2nc3ccc(Cl)cc3[nH]2)c1` displayed a Ki in assay [3] of 36.5 µM. The inhibition in the assay filed under Homo sapiens was more than 50%. For the same molecule, in assay [1], the half-maximal inhibitory concentration (IC50) turned out to be 38.1 µM.
Consider `N#Cc1ccc(-c2nc3cc(Cl)ccc3[nH]2)cc1`, for which the inhibition in the assay listed under Homo sapiens is less than 50%. In addition, the IC50 in assay [1] is more than 500 µM.
With `Clc1ccc2nc(-c3c(Cl)cccc3Cl)[nH]c2c1`, in the assay listed under Homo sapiens, the inhibition is more than 50%. In addition, the half-maximal inhibitory concentration (IC50) in assay [1] was 96.4 µM. The molecule further registered a Ki in assay [2] of 99.8 µM.
For the molecule `Oc1ccccc1-c1nc2cc(Cl)ccc2[nH]1`, the inhibition in the assay listed under Homo sapiens is less than 50%. For the same molecule, in assay [1], the IC50 is more than 500 µM.
For `O=[N+]([O-])c1ccc(Cl)c(-c2nc3ccc(Cl)cc3[nH]2)c1`, in the assay listed under Homo sapiens, the inhibition was less than 50%. The molecule also yielded a 50% inhibitory concentration (IC50) in assay [1] of more than 500 µM.
`CCOc1cc(-c2nc3ccc(Cl)cc3[nH]2)ccc1O` showed an inhibition in the assay listed under Homo sapiens of more than 50%. In assay [1], this molecule came in with an IC50 of 15.9 µM. This molecule also returned a Ki in assay [2] of 17.3 µM.
With `Clc1ccc2[nH]c(/C=C/c3ccccc3)nc2c1`, the inhibition in the assay listed under Homo sapiens is less than 50%. In assay [1], this molecule returned an IC50 of 486 µM.
In the assay listed under Homo sapiens, `Cc1ccc(-c2nc3cc(Cl)ccc3[nH]2)cc1` gave an inhibition of less than 50%. For the same molecule, in assay [1], the 50% inhibitory concentration (IC50) is more than 500 µM.
In the assay listed under Homo sapiens, `Fc1ccccc1-c1nc2ccc(Cl)cc2[nH]1` yielded an inhibition of more than 50%. In assay [1], the half-inhibitory concentration (IC50) was determined as 118 µM. Further, in assay [2], the Ki worked out at 79.3 µM.
Consider `COc1ccc(-c2nc3ccc(Cl)cc3[nH]2)cc1OC`, for which the inhibition in the assay filed under Homo sapiens was more than 50%. In assay [1], this molecule yielded an IC50 of 14.8 µM. In addition, in assay [2], the inhibitory constant (Ki) worked out at 16.4 µM.
The molecule `Clc1ccc2nc(-c3cccnc3)[nH]c2c1` registered an inhibition in the assay listed under Homo sapiens of more than 50%. Moreover, the half-maximal inhibitory concentration (IC50) in assay [1] was 48.9 µM. Further, the Ki in assay [2] is 50.1 µM.
`CC(C)c1ccc(-c2nc3ccc(Cl)cc3[nH]2)cc1` returned an inhibition in the assay filed under Homo sapiens of less than 50%. The half-maximal inhibitory concentration (IC50) in assay [1] turned out to be 428 µM.
The molecule `O=[N+]([O-])c1ccc(-c2nc3cc(Cl)ccc3[nH]2)cc1` gave an inhibition in the assay listed under Homo sapiens of less than 50%. Also, in assay [1], the concentration for half-maximal inhibition (IC50) is 471 µM.
